From patent US20230233583A1, “USE OF PHYTOCANNABINOIDS FOR TREATING MULTIPLE MYELOMA” (priority 2020, published 2023)

Tested on: MM cell lines SKO, U266 and RPMI
Assay: Alkaline Comet assay
Type: cell-based, human
Details: 48 hrs, CBG, CBN, CBDV 25 μM, CBC 75 μM
Protocol: Damage to cellular DNA of the cell lines SKO (upper images in each of FIGS. 21-24), U266 (middle images in each of FIGS. 21-24) and RPMI (lower images in each of FIGS. 21-24) due to exposure to CBG (25 μM; FIG. 21), CBC (75 μM; FIG. 22), CBN (25 μM; FIG. 23) and CBDV (25 μM; FIG. 24) were assessed using the Comet assay.
Alkaline Comet Assay: U266, SKO and RPMI myeloma cell lines were plated in 6-well plates (4×10^4 cell/well) one day before treatment exposure. Semi-confluent cultures were exposed for 48 hrs with 25 μM of CBG, CBN or CBDV or 75 μM of CBC. Controls, treated with vehicle, were included in all series. The Comet assay was performed under alkaline conditions following the ABCAM™ protocol. Briefly, after exposure to the phytocannabinoid, the cells were incubated for 48 hrs in Roswell Park Memorial Institute (RPMI) medium. Then the cells were resuspended in 1×PBS and added to 75 μL of molten (37° C.) 0.5% low-melting-point agarose gel to achieve a cell concentration of 1×10^5 cells/mL. The agarose was pipetted onto the Comet slides. Slides were stored in the dark at 4° C. for 10 min before adding pre-chilled lysis buffer for 45 min. The slides were immersed in freshly prepared alkaline solution (0.25 M NaOH containing […] EDTA, pH 12.6) for 30 min at room temperature. Slides were then removed and washed twice with alkaline solution for 5 min. Gel electrophoresis was performed at 1 V/cm for 30 min (running amperage 3-5 mA with the distance between the two electrodes of 25 cm). The Comet slides were washed with 70% ethanol for 5 min and air-dried for one hour at room temperature. 100 μL of diluted SYBR™ Green solution was placed onto each dried agarose circle. The slides were then read with a fluorescence microscope (LEIKA).
Phytocannabinoids induce necrotic cell death in MM cell lines: To evaluate the cytotoxic mechanism induced by the phytocannabinoids, MM cell lines were treated daily with a cytotoxic dose for each phytocannabinoid (CBG: 25 μM; CBC 75 μM; CBN 25 μM; CBDV 25 μM) for 48 hours and then Annexin-V/PI cell positivity was evaluated by FACS analysis. The results evidenced that all of the phytocannabinoids induced necrotic cell death but had different efficacies (FIGS. 5-16). To confirm the necrotic cell death mechanism, MM cell lines were treated as above and DNA damage was evaluated by H2AX (a marker to examine the DNA damage produced and the subsequent repair of the DNA lesion) Western blot analysis and Comet assay (permits the analysis of DNA damage in single cell preparations). The result confirmed the DNA damage induced by the phytocannabinoid analysed. […]

Row | Structure (SMILES) | DNA damage by Comet assay, in words
1 | CCCCCc1cc(O)c(C/C=C(\C)CCC=C(C)C)c(O)c1 [CBG, 2-[(2E)-3,7-dimethylocta-2,6-dienyl]-5-pentylbenzene-1,3-diol] | induce DNA damage
2 | CCCCCc1cc(O)c2c(c1)OC(C)(C)c1ccc(C)cc1-2 [CBN, 6,6,9-trimethyl-3-pentylbenzo[c]chromen-1-ol] | induce DNA damage
3 | C=C(C)[C@@H]1CCC(C)=C[C@H]1c1c(O)cc(CCC)cc1O [CBDV, 2-[(1R,6R)-3-methyl-6-prop-1-en-2-ylcyclohex-2-en-1-yl]-5-propylbenzene-1,3-diol] | induce DNA damage
4 | CCCCCc1cc(O)c2c(c1)OC(C)(CCC=C(C)C)C=C2 (stereo not shown) [CBC, 2-methyl-2-(4-methylpent-3-enyl)-7-pentylchromen-5-ol] | induce DNA damage
